Measured values published in US20230355549A1, “METHOD OF PREVENTING KIDNEY INJURY DISRUPTION OF INTESTINAL LYMPHATICS” (Vanderbilt University, priority 2020, published 2023).
Where a name gives a salt, the structure may show the parent alone.

Columns and labels:
[1] = system: Sprague Dawley rats; conditions: rat, in vivo, ip, 125 mg/kg
Protocol: Adult male Sprague Dawley rats (200-225 g, Charles River) were housed under a 12-h light/dark cycle with free access to normal rat chow and water. Kidney injury was induced by a single injection of puromycin […] (PAN) (125 mg/kg body weight, i.p.) while saline-injected rats served as controls (Cont). Eight days after injection, rats were sacrificed and blood, urine, and tissues were harvested. We also studied adult male (12 weeks old) Nphs1-hCD25 transgenic (NEP25, C57 bl/6 background) mice expressing human CD25 on podocytes can be selectively injured by injection of recombinant immunotoxin, anti-Tac (Fv)-PE38 (LMB2, 1 ng/g BW, i.v. generously provided by Dr. Ira Pastan) that results in proteinuria. These and wild type control mice were housed under normal conditions with free access to regular rodent chow and water. Two weeks after LMB2, mice were sacrificed and blood, urine and tissues harvested. All animal procedures were approved by the Institutional Animal Care and Use Committee at Vanderbilt University.
Mesenteric lymph was collected in a subset of conscious rats following cannulation of the mesenteric lymph duct. The rats were placed in Bollman cages in a temperature- and humidity-controlled incubator and lymph collected hourly for at least 3 h.
(§1) Albumin (Exocell), apoAI (Mybiosource), sphingosine-1 phosphate (S1P) (Mybiosource) and VEGF-C levels (Mybiosource) were measured by ELISA. Albuminuria was measured as urine albumin-to-creatinine ratio (ACR) (Nephrat II, Exocell) and QuantiChrom™ Creatinine Assay Kit (Bioassay Systems), respectively. Plasma and lymph total cholesterol and triglycerides were measured enzymatically (Cliniqa). HDL and LDL fractions were isolated from plasma and lymph by density-gradient ultracentrifugation after adjustment with potassium bromide. Lipoprotein particle size was evaluated by NMR methodology (Liposcience). Colorimetric assays were used to measure protein (BCA, ThermoFisher). Lipoproteins in plasma and lymph were separated by size-exclusion chromatography (SEC) using an Akta Pure fast-protein liquid chromatography (FPLC) system (GE Healthcare). Total IsoLG-protein adduct by LC/MS was measured as IsoLG-lysine after complete proteolytic digestion of lymph samples.

[2] = system: Primary adult dermal lymphatic endothelial cells (LECs); experiment: Cultured lymphatic endothelial cells (LECs) exposed to IsoLG-modified apoAI; type: cell-based; conditions: apoAI 10 μg/ml, IsoLG 1 μM/L, 18 h, vs unmodified apoAI
Protocol: Primary adult dermal lymphatic endothelial cells (LECs) (HMVEC-DLyAd, Lonza) were cultured with conditioned growth medium (Lonza). Cells at passage 5-6 with ˜70% confluence were starved in serum-free medium overnight, then incubated with unmodified or IsoLG-modified apoAI (apoAI: 10 μg/ml, IsoLG: 1 μM/L) for 18 h. […] Quantification of eNOS (Nos3) and β-actin (ACTB) mRNA was performed by RT-PCR and production of superoxide was assessed by high-performance liquid chromatography.

[3] = system: THP-1 cells; experiment: VEGFC mRNA in THP-1 derived macrophages; type: cell-based; conditions: apoAI 10 μg/ml, IsoLG 1 μM/L, 48 h, vs unmodified apoAI, FIG. 6D
Protocol: THP-1 cells were plated and differentiated into macrophages by […] containing 10% FBS and 50 ng/ml phorbol 12-myristate 13-acetate for 3 days. Cells were incubated with unmodified or IsoLG-modified apoAI (apoAI: 10 μg/ml, IsoLG: 1 μM/L) for 48 h. VEGFC mRNA was assessed by RT-PCR.

[4] = system: isolated mesenteric lymphatic vessels; experiment: Lymphatic dynamics ex vivo, isolated mesenteric lymphatic vessels
Protocol: Mesenteric lymphatic vessels were collected and mounted in a perfusion chamber. Chambers were placed on inverted microscopes equipped with a digital image capture system (IonOptix) to record pre-valve intraluminal diameters and frequency of contractions. Vessels were warmed to 37° C., pressurized to 0.5 mmHg using a column of Krebs buffer, and allowed to equilibrate (20-60 minutes). Viable vessels were then pressurized in a stepwise manner to a constant pressure of 3.5 mmHg, then exposed to purified apoAI or modified apoAI using 1 molar equivalent synthetic IsoLG or vehicle (DMSO). Fresh Krebs buffer was circulated to facilitate wash out. Next vessels were exposed to IsoLG-modified apoAI. After each challenge, lumen diameters were allowed to plateau (40-60 minutes).

[5] = system: ileal organoids; experiment: IsoLG adduct production in cultured ileal organoids (enteroids); type: cell-based; conditions: 1 mmol/L, 3 days, vs vehicle, FIG. 4C
Protocol: as §1
Intact perfused intestine was used to generate ileal organoids. Cultured ileal organoids were incubated in medium with or without indoxyl sulfate (1 mmol/L, Sigma) for 3 days. Total protein was extracted for quantitation of IsoLG.

CN(C)c1ncnc2c1ncn2[C@@H]1O[C@H](CO)[C@@H](N)[C@H]1O [PAN, puromycin aminoglycoside]
ACR (albumin/creatinine concentration ratio) [1]: 126.652 ± 13.283 mg/mg | Plasma Albumin [1]: 350.7 ± 27.3 mg/dL | Plasma Cholesterol [1]: 236.6 ± 36.8 mg/dL | Plasma Triglyceride [1]: 132.1 ± 19.2 mg/dL

IsoLG-apoAI: purified apoAI modified using 1 molar equivalent synthetic IsoLG
production of ROS ([2]; FIG. 5A): significantly greater production of ROS | eNOS (Nos3) gene expression ([2]; FIG. 5B): increased Nos3 | VEGFC mRNA expression [3]: significantly increased | end-systolic diameter (ESD) ([4]; FIG. 5D): failed to significantly alter | end-diastolic diameter (EDD) ([4]; FIG. 5E): significantly decreased | amplitude of contraction ([4]; FIG. 5F): significantly reduced | frequency of contractions ([4]; vs unmodified apoAI, FIG. 5C): increased frequency of contractions

O=S(=O)(O)Oc1c[nH]c2ccccc12 [indoxyl sulfate]
IsoLG adduct production [5]: significantly increased
